Read-outs that look alike come from different tables or passages of the source.
Legend:
Type in all cases: in vivo
Puccinia recondita = assay: Greenhouse, Puccinia recondita on wheat, 1 day residual; conditions: for pest or weed control at 0.06 ppm / pest or weed control at 0.25 ppm / pest or weed control at 1 ppm / pest or weed control at 4 ppm: Puccinia recondita, read-out: Observed Efficacy
Excerpt: (§1) The fungicides are applied in single treatments, or in a combination comprising an azolopyrimidine of formula I and a compound selected from the classes (A), (B) and (C) as defined above. The compounds are applied in form of an aqueous spray mix obtained from a concentrated formulation or the technical material.
(§2) 1. Seed is planted in 6 cm diameter plastic pots and maintained in the greenhouse.
(§3) 2. When the primary leaf is fully expanded in the case of cereals or several leaves are present in the case of dicots, formulated test compounds are sprayed with a three nozzle overhead fungicide sprayer to near run-off. Alternatively, a single nozzle overhead track sprayer is used for application of the compounds to cereals at a rate of 200 l/ha. Plants are then allowed to air-dry.
(§4) 3. Inoculation precedes treatment in the case of curative evaluations and follows treatment in case of residual evaluations. For inoculation of powdery mildew disease, plants are set up on greenhouse benches with bottom watering mats and inoculated by dusting them with conidia from infected plants. Between inoculation and treatment for curative evaluations and between treatment and inoculation for residual evaluations, plants are maintained in the greenhouse with bottom watering.
For inoculation of non-powdery mildew diseases, an aqueous spore suspension of the pathogen is applied to the plant and the plants are kept 1-2 days in a moist infection chamber before being returned to the greenhouse where they are maintained by bottom watering.
(§5) 4. Disease on the foliage as percent leaf area with disease symptoms/signs is evaluated about 7 days after inoculation. In the case of wheat, the tips and bases of the leaves are excluded from the evaluation. [formula]
(§6) 1. Technical compounds are formulated in a solvent/surfactant system consisting of 5% acetone and 0.05% Tween 20 in deionized water. Compounds are dissolved in acetone prior to addition of the water; the Tween 20 can be added through either the acetone or the water. Dilutions are made using the solvent/surfactant system. Formulated compounds are prepared using deionized water.
(§7) 2. Two kinds of controls are included: Plants treated with the solvent/surfactant solution and inoculated (Solvent Blank). Untreated plants which are inoculated (Inoculated Control).
(§8) Assessments of the diseases took place at the indicated day after the application of the compounds. Per cent infected leaf area infected was evaluated. The efficacy of the compounds/compounds mixtures to control the diseases was calculated by using the formula given above under item 4: […]
(§9) Synergy was calculated using the % disease control values of specific treatments for the two COLBY formula given hereinabove
Fungicidal efficacy of the mixture of Azolopyrimidine C+metconazole (1 day residual) against Puccinia recondita on wheat The tank mix was obtained from a SC formulation containing 100 g Azolopyrimidine C per liter and an EC containing 100 g metconazole per liter. […]
Fungicidal efficacy of the mixture of Azolopyrimidine C+fluazinam (1 day residual) against Puccinia recondita on wheat The tank mix was obtained from technical material of Azolopyrimidine C and a SC formulation containing 500 g fluazinam per liter. […]

Blumeria graminis [1] = assay: Greenhouse, Blumeria graminis on wheat, 1 day residual
Excerpt: as §1, §2, §3, §4, §5, §6, §7, §8, §9
Fungicidal efficacy of the mixture of Azolopyrimidine C+quinoxyfen (1 day residual)) against Blumeria graminis on wheat The tank mix was obtained from technical material of Azolopyrimidine C and quinoxyfen.
Fungicidal efficacy of the mixture of Azolopyrimidine C+metalaxyl (1 day residual) against Blumeria graminis on wheat The tank mix was obtained from technical material of Azolopyrimidine C and metalaxyl.
Fungicidal efficacy of the mixture of Azolopyrimidine C+famoxadone (1 day residual) against Blumeria graminis on wheat The tank mix was obtained from technical material of Azolopyrimidine C and famoxadone.

Blumeria graminis [2] = assay: Greenhouse, Blumeria graminis on barley, 2 days curative; conditions: Example 26
Description: The trials are carried out under greenhouse (Examples 1 to 32) or field conditions (Examples 33 to 40) in residual or curative applications. The fungicides are applied in single treatments, or in a combination comprising an azolopyrimidine of formula I and a compound selected from the classes (A), (B) and (C) as defined above. The compounds are applied in form of an aqueous spray mix obtained from a concentrated formulation or the technical material.
as §2, §3, §4, §5, §6, §7, §8, §9
Fungicidal efficacy of the mixture of (S)-Azolopyrimidine C in admixture with Fenhexamid (2 days curative) against Blumeria graminis on barley. The tank mixes were obtained from technical material of (S)-Azolopyrimidine C and Fenhexamid.
Fungicidal efficacy of the mixture of (S)-Azolopyrimidine C in admixture with Azoxystrobin or Trifloxystrobin (2 days curative) against Blumeria graminis on barley. The tank mixes were obtained from technical material of (S)-Azolopyrimidine C and Azoxystrobin or Trifloxystrobin.

Botrytis cinerea = assay: Apple fruit Botrytis test, Botrytis cinerea on apple fruits, 3 day residual
Description: 1. Apples (Malus X domestica Borkh.) variety Golden Delicious are disinfected by washing them briefly in 70% ethanol. After drying the apples are marked with four short equal-distant lines indicating the positions to be wounded.
2. Corresponding with the marks, four holes are poked around the apple equator with a pipette tip. 10 μl of the treatment solution are pipetted into each hole.
3. Three hours after application, 10 μl of a conidial suspension of Botrytis cinerea are pipetted into each. For incubation, the treated/inoculated apples are set up for five days.
4. Disease occurs as rotten apple tissue surrounding the inoculated wounds. The diameter of the rotten zone around each wound is measured.
1. Technical compounds are formulated in a solvent system consisting of 5% acetone and 0.05% Tween 20 in deionized water. Compounds are dissolved in acetone prior to dilution with water. Formulated compounds are prepared using deionized water.
2. Three kinds of controls are included:
Assessments of the diseases took place at the indicated day after the application of the compounds. Per cent infected leaf area infected was evaluated. The efficacy of the compounds/compounds mixtures to control the diseases was calculated by using the formula: [formula]
as §9
Fungicidal efficacy of the mixture of Azolopyrimidine A+vinclozolin (3 day residual) against Botrytis cinerea on apple fruits The tank mix was obtained from technical material of Azolopyrimidine A and a WG formulation containing 500 g vinclozolin per kg.
Fungicidal efficacy of the mixture of Azolopyrimidine A+cyprodinil (3 day residual) against Botrytis cinerea on apple fruits The tank mix was obtained from technical material of Azolopyrimidine A and a WG formulation containing 750 g cyprodinil per kg.
Fungicidal efficacy of the mixture of Azolopyrimidine A+benomyl (3 day residual) against Botrytis cinerea on apple fruits The tank mix was obtained from technical material of Azolopyrimidine A and a WP formulation containing 500 g benomyl per kg.

C[C@@]1(c2ccc(Oc3ccccc3)cc2)OC(=O)N(Nc2ccccc2)C1=O (racemic) [famoxadone]
pest or weed control at 0.06 ppm (Puccinia recondita; Example 19, dose rate 0.06 ppm): 0%
pest or weed control at 0.25 ppm (Puccinia recondita; Example 19, dose rate 0.25 ppm): 0%
pest or weed control at 1 ppm (Puccinia recondita; Example 19, dose rate 1 ppm): 31%
pest or weed control at 4 ppm (Puccinia recondita; Example 19, dose rate 4 ppm): 61%
Observed Efficacy (Blumeria graminis [1]; Example 18, dose rate 0.06 ppm): 0%
Observed Efficacy (Blumeria graminis [1]; Example 18, dose rate 0.25 ppm): 0%
Observed Efficacy (Blumeria graminis [1]; Example 18, dose rate 1 ppm): 0%
Observed Efficacy (Blumeria graminis [1]; Example 18, dose rate 4 ppm): 0%

CC1(C(=O)Nc2ccc(O)c(Cl)c2Cl)CCCCC1 [Fenhexamid]
Observed Efficacy (Blumeria graminis [2]; dose rate 0.74 ppm): 0%
Observed Efficacy (Blumeria graminis [2]; dose rate 2.2 ppm): 0%
Observed Efficacy (Blumeria graminis [2]; dose rate 6.7 ppm): 0%
Observed Efficacy (Blumeria graminis [2]; dose rate 20 ppm): 1%
Observed Efficacy (Blumeria graminis [2]; dose rate 60 ppm): 7%
Observed Efficacy (Blumeria graminis [2]; dose rate 180 ppm): 39%

CCCCNC(=O)n1c(NC(=O)OC)nc2ccccc21 [benomyl]
Observed Efficacy (Botrytis cinerea; Example 6, dose rate 1 ppm): 0%
Observed Efficacy (Botrytis cinerea; Example 6, dose rate 10 ppm): 13%

CC1=C(C(=O)Nc2ccccc2)SCCO1 [carboxin]
pest or weed control at 0.06 ppm (Puccinia recondita): 0%
pest or weed control at 0.25 ppm (Puccinia recondita): 0%
pest or weed control at 1 ppm (Puccinia recondita): 0%
pest or weed control at 4 ppm (Puccinia recondita): 4%

[Cl-].[Cu+2].[Cu+2].[OH-].[OH-].[OH-] [copper oxychloride]
Observed Efficacy (Puccinia recondita; Example 21, dose rate 0.06 ppm): 0%

CCCCCCCCCCCCNC(=N)N [dodine]
pest or weed control at 0.06 ppm (Puccinia recondita): 0%

O=[N+]([O-])c1cc(C(F)(F)F)c(Cl)c([N+](=O)[O-])c1Nc1ncc(C(F)(F)F)cc1Cl [fluazinam]
pest or weed control at 0.06 ppm (Puccinia recondita; Example 14, dose rate 0.06 ppm): 0%
pest or weed control at 1 ppm (Puccinia recondita; Example 14, dose rate 1 ppm): 4%
pest or weed control at 4 ppm (Puccinia recondita; Example 14, dose rate 4 ppm): 17%

COCC(=O)N(c1c(C)cccc1C)C(C)C(=O)OC (centres unmarked) [metalaxyl]
Observed Efficacy (Blumeria graminis [1]; Example 17, dose rate 0.06 ppm): 0%
Observed Efficacy (Blumeria graminis [1]; Example 17, dose rate 0.25 ppm): 0%
Observed Efficacy (Blumeria graminis [1]; Example 17, dose rate 1 ppm): 0%
Observed Efficacy (Blumeria graminis [1]; Example 17, dose rate 4 ppm): 0%

Fc1ccc(Oc2ccnc3cc(Cl)cc(Cl)c23)cc1 [quinoxyfen]
pest or weed control at 0.06 ppm (Puccinia recondita; Example 15, dose rate 0.06 ppm): 0%
pest or weed control at 0.25 ppm (Puccinia recondita; Example 15, dose rate 0.25 ppm): 0%
pest or weed control at 1 ppm (Puccinia recondita; Example 15, dose rate 1 ppm): 0%
pest or weed control at 4 ppm (Puccinia recondita; Example 15, dose rate 4 ppm): 0%
Observed Efficacy (Blumeria graminis [1]; Example 16, dose rate 0.06 ppm): 8%
Observed Efficacy (Blumeria graminis [1]; Example 16, dose rate 0.25 ppm): 18%
Observed Efficacy (Blumeria graminis [1]; Example 16, dose rate 1 ppm): 73%
Observed Efficacy (Blumeria graminis [1]; Example 16, dose rate 4 ppm): 99%

S1SSSSSSS1 [sulfur]
pest or weed control at 1 ppm (Puccinia recondita; Example 22, dose rate 1 ppm): 0%

C=CC1(C)OC(=O)N(c2cc(Cl)cc(Cl)c2)C1=O (centres unmarked) [vinclozolin]
Observed Efficacy (Botrytis cinerea; Example 4, dose rate 10 ppm): 8%
Observed Efficacy (Botrytis cinerea; Example 7, dose rate 1 ppm): 0%
Observed Efficacy (Botrytis cinerea; Example 7, dose rate 10 ppm): 17%
